In PubChem BioAssay AID2060904 (Molecular Pharmacology Branch, DTP, NCI, 2025):
One block for each molecule: values may come before it.

Test system: 349418-098-R-PDC complex spheroid viability
Assay: Anticancer human tumor 349418-098-R-PDC patient-derived lung adenocarcinoma cell line growth inhibition [RAS]
Settings: for IC50: curve of first compound; for viability, T/C: stronger effect = lower value
Method in brief: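 Multi-cell-type spheroids: tumor cells plus HUVEC endothelial cells and mesenchymal stem cells. RAS-pathway inhibitors were combined with targeted agents, each dosed in half-log steps down from clinical Cmax, or from 10 microM when Cmax was unknown.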

[1] = second compound 0.000949 µM, first compound 0.00316 µM
[2] = second compound 0.000949 µM, first compound 0.01 µM
[3] = second compound 0.000949 µM, first compound 0.0316 µM
[4] = second compound 0.000949 µM, first compound 0.1 µM
[5] = second compound 0.000949 µM, first compound 0.316 µM
[6] = second compound 0.000949 µM, first compound 1 µM
[7] = second compound 0.003 µM, first compound 0.00316 µM
[8] = second compound 0.003 µM, first compound 0.01 µM
[9] = second compound 0.003 µM, first compound 0.0316 µM
[10] = second compound 0.003 µM, first compound 0.1 µM
[11] = second compound 0.003 µM, first compound 0.316 µM
[12] = second compound 0.003 µM, first compound 1 µM
[13] = second compound 0.00949 µM, first compound 0.00316 µM
[14] = second compound 0.00949 µM, first compound 0.01 µM
[15] = second compound 0.00949 µM, first compound 0.0316 µM
[16] = second compound 0.00949 µM, first compound 0.1 µM
[17] = second compound 0.00949 µM, first compound 0.316 µM
[18] = second compound 0.00949 µM, first compound 1 µM
[19] = second compound 0.03 µM, first compound 0.00316 µM
[20] = second compound 0.03 µM, first compound 0.01 µM
[21] = second compound 0.03 µM, first compound 0.0316 µM
[22] = second compound 0.03 µM, first compound 0.1 µM
[23] = second compound 0.03 µM, first compound 0.316 µM
[24] = second compound 0.03 µM, first compound 1 µM
[25] = second compound 0.0949 µM, first compound 0.00316 µM
[26] = second compound 0.0949 µM, first compound 0.01 µM
[27] = second compound 0.0949 µM, first compound 0.0316 µM
[28] = second compound 0.0949 µM, first compound 0.1 µM
[29] = second compound 0.0949 µM, first compound 0.316 µM
[30] = second compound 0.0949 µM, first compound 1 µM
[31] = second compound 0.3 µM, first compound 0.00316 µM
[32] = second compound 0.3 µM, first compound 0.01 µM
[33] = second compound 0.3 µM, first compound 0.0316 µM
[34] = second compound 0.3 µM, first compound 0.1 µM
[35] = second compound 0.3 µM, first compound 0.316 µM
[36] = second compound 0.3 µM, first compound 1 µM
[37] = second compound 0.000949 µM, first compound 0.000949 µM
[38] = second compound 0.000949 µM, first compound 0.003 µM
[39] = second compound 0.000949 µM, first compound 0.00949 µM
[40] = second compound 0.000949 µM, first compound 0.03 µM
[41] = second compound 0.000949 µM, first compound 0.0949 µM
[42] = second compound 0.000949 µM, first compound 0.3 µM
[43] = second compound 0.003 µM, first compound 0.000949 µM
[44] = second compound 0.003 µM, first compound 0.003 µM
[45] = second compound 0.003 µM, first compound 0.00949 µM
[46] = second compound 0.003 µM, first compound 0.03 µM
[47] = second compound 0.003 µM, first compound 0.0949 µM
[48] = second compound 0.003 µM, first compound 0.3 µM
[49] = second compound 0.00949 µM, first compound 0.000949 µM
[50] = second compound 0.00949 µM, first compound 0.003 µM
[51] = second compound 0.00949 µM, first compound 0.00949 µM
[52] = second compound 0.00949 µM, first compound 0.03 µM
[53] = second compound 0.00949 µM, first compound 0.0949 µM
[54] = second compound 0.00949 µM, first compound 0.3 µM
[55] = second compound 0.03 µM, first compound 0.000949 µM
[56] = second compound 0.03 µM, first compound 0.003 µM
[57] = second compound 0.03 µM, first compound 0.00949 µM
[58] = second compound 0.03 µM, first compound 0.03 µM
[59] = second compound 0.03 µM, first compound 0.0949 µM
[60] = second compound 0.03 µM, first compound 0.3 µM
[61] = second compound 0.0949 µM, first compound 0.000949 µM
[62] = second compound 0.0949 µM, first compound 0.003 µM
[63] = second compound 0.0949 µM, first compound 0.00949 µM
[64] = second compound 0.0949 µM, first compound 0.03 µM
[65] = second compound 0.0949 µM, first compound 0.0949 µM
[66] = second compound 0.0949 µM, first compound 0.3 µM
[67] = second compound 0.3 µM, first compound 0.000949 µM
[68] = second compound 0.3 µM, first compound 0.003 µM
[69] = second compound 0.3 µM, first compound 0.00949 µM
[70] = second compound 0.3 µM, first compound 0.03 µM
[71] = second compound 0.3 µM, first compound 0.0949 µM
[72] = second compound 0.3 µM, first compound 0.3 µM
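Also: spheroids exposed to compound for seven days before viability readout.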

IC50 (second compound 0.000949 µM): > 1000 nM
IC50 (second compound 0.003 µM): > 1000 nM
IC50 (second compound 0.00949 µM): > 1000 nM
IC50 (second compound 0.03 µM): > 1000 nM
IC50 (second compound 0.0949 µM): > 1000 nM
IC50 (second compound 0.3 µM): > 1000 nM
SMILES: C=CC(=O)N1CCN(c2nc(OCC3CCCN3C)nc3c(F)c(-c4nc(N)cc(C)c4C(F)(F)F)c(Cl)cc23)C(C)C1 (stereo not drawn) + CCn1c(-c2cc(N3CCN(C)CC3)cnc2C(C)OC)c2c3cc(ccc31)-c1csc(n1)CC(NC(=O)C1CC1C)C(=O)N1CCCC(N1)C(=O)OCC(C)(C)C2
viability, T/C [1]: 117%
viability, T/C [2]: 82.4%
viability, T/C [3]: 109%
viability, T/C [4]: 101%
viability, T/C [5]: 96.8%
viability, T/C [6]: 101%
viability, T/C [7]: 90.3%
viability, T/C [8]: 105%
viability, T/C [9]: 96.1%
viability, T/C [10]: 86.7%
viability, T/C [11]: 99.9%
viability, T/C [12]: 82.2%
viability, T/C [13]: 101%
viability, T/C [14]: 97.1%
viability, T/C [15]: 104%
viability, T/C [16]: 98.9%
viability, T/C [17]: 106%
viability, T/C [18]: 80.7%
viability, T/C [19]: 99%
viability, T/C [20]: 110%
viability, T/C [21]: 99.7%
viability, T/C [22]: 102%
viability, T/C [23]: 97.4%
viability, T/C [24]: 82.3%
viability, T/C [25]: 92.5%
viability, T/C [26]: 110%
viability, T/C [27]: 112%
viability, T/C [28]: 112%
viability, T/C [29]: 113%
viability, T/C [30]: 102%
viability, T/C [31]: 110%
viability, T/C [32]: 94.3%
viability, T/C [33]: 105%
viability, T/C [34]: 109%
viability, T/C [35]: 99.7%
viability, T/C [36]: 90.5%

IC50 (second compound 0.000949 µM): 1.07 nM
IC50 (second compound 0.003 µM): 1.02 nM
IC50 (second compound 0.00949 µM): < 0.949 nM
IC50 (second compound 0.03 µM): 1.05 nM
IC50 (second compound 0.0949 µM): < 0.949 nM
IC50 (second compound 0.3 µM): 1.09 nM
SMILES: CC1(C)CCC(Nc2ncc(C(F)(F)F)c(-c3c[nH]c4c(P(C)(C)=O)c(C#N)ccc34)n2)CN1 (stereo not drawn) + CCn1c(-c2cc(N3CCN(C)CC3)cnc2C(C)OC)c2c3cc(ccc31)-c1csc(n1)CC(NC(=O)C1CC1C)C(=O)N1CCCC(N1)C(=O)OCC(C)(C)C2
viability, T/C [37]: 53.6%
viability, T/C [38]: 23.1%
viability, T/C [39]: 13.3%
viability, T/C [40]: 9.61%
viability, T/C [41]: 8.11%
viability, T/C [42]: 6.35%
viability, T/C [43]: 52.2%
viability, T/C [44]: 22.1%
viability, T/C [45]: 14.4%
viability, T/C [46]: 8.76%
viability, T/C [47]: 7.99%
viability, T/C [48]: 7.95%
viability, T/C [49]: 50.2%
viability, T/C [50]: 26.2%
viability, T/C [51]: 12.5%
viability, T/C [52]: 9.59%
viability, T/C [53]: 9.15%
viability, T/C [54]: 8%
viability, T/C [55]: 53.3%
viability, T/C [56]: 20.5%
viability, T/C [57]: 12.5%
viability, T/C [58]: 9.78%
viability, T/C [59]: 8.18%
viability, T/C [60]: 8.17%
viability, T/C [61]: 49.1%
viability, T/C [62]: 23.5%
viability, T/C [63]: 11.1%
viability, T/C [64]: 10.2%
viability, T/C [65]: 10.9%
viability, T/C [66]: 7.97%
viability, T/C [67]: 53.6%
viability, T/C [68]: 23.7%
viability, T/C [69]: 11.2%
viability, T/C [70]: 11%
viability, T/C [71]: 9.58%
viability, T/C [72]: 7.73%

IC50 (second compound 0.000949 µM): 2.48 nM
IC50 (second compound 0.003 µM): 2.46 nM
IC50 (second compound 0.00949 µM): 3.33 nM
IC50 (second compound 0.03 µM): 2.31 nM
IC50 (second compound 0.0949 µM): 2.78 nM
IC50 (second compound 0.3 µM): 2.42 nM
SMILES: CCc1c2c(nc3ccc(O)cc13)-c1cc3c(c(=O)n1C2)COC(=O)[C@]3(O)CC + CCn1c(-c2cc(N3CCN(C)CC3)cnc2C(C)OC)c2c3cc(ccc31)-c1csc(n1)CC(NC(=O)C1CC1C)C(=O)N1CCCC(N1)C(=O)OCC(C)(C)C2
viability, T/C [37]: 88%
viability, T/C [38]: 42.6%
viability, T/C [39]: 12.3%
viability, T/C [40]: 6.15%
viability, T/C [41]: 2.77%
viability, T/C [42]: 1.87%
viability, T/C [43]: 80.7%
viability, T/C [44]: 43.8%
viability, T/C [45]: 13.4%
viability, T/C [46]: 5.78%
viability, T/C [47]: 2.15%
viability, T/C [48]: 1.76%
viability, T/C [49]: 84.5%
viability, T/C [50]: 53.7%
viability, T/C [51]: 13.5%
viability, T/C [52]: 6.16%
viability, T/C [53]: 3.17%
viability, T/C [54]: 1.91%
viability, T/C [55]: 90.9%
viability, T/C [56]: 38%
viability, T/C [57]: 11.6%
viability, T/C [58]: 5.22%
viability, T/C [59]: 2.72%
viability, T/C [60]: 2.61%
viability, T/C [61]: 88.9%
viability, T/C [62]: 47.3%
viability, T/C [63]: 17.3%
viability, T/C [64]: 6.18%
viability, T/C [65]: 2.99%
viability, T/C [66]: 1.97%
viability, T/C [67]: 87.1%
viability, T/C [68]: 41%
viability, T/C [69]: 19.7%
viability, T/C [70]: 7.26%
viability, T/C [71]: 3.82%
viability, T/C [72]: 1.95%

IC50 (second compound 0.000949 µM): > 1000 nM
IC50 (second compound 0.003 µM): > 1000 nM
IC50 (second compound 0.00949 µM): > 1000 nM
IC50 (second compound 0.03 µM): > 1000 nM
IC50 (second compound 0.0949 µM): > 1000 nM
IC50 (second compound 0.3 µM): > 1000 nM
SMILES: C=CC(=O)Nc1cc(Nc2nccc(-c3cn(C)c4ccccc34)n2)c(OC)cc1N(C)CCN(C)C + CCn1c(-c2cccnc2C(C)OC)c2c3cc(ccc31)N1CCOC(CC(NC(=O)C(C(C)C)N(C)C(=O)C3(F)CCN(C(=O)C#CC(C)(C)N(C)C)CC3)C(=O)N3CCCC(N3)C(=O)OCC(C)(C)C2)C1
viability, T/C [1]: 115%
viability, T/C [2]: 100%
viability, T/C [3]: 93.6%
viability, T/C [4]: 98.3%
viability, T/C [5]: 95.4%
viability, T/C [6]: 71.8%
viability, T/C [7]: 117%
viability, T/C [8]: 98.6%
viability, T/C [9]: 114%
viability, T/C [10]: 116%
viability, T/C [11]: 116%
viability, T/C [12]: 60.7%
viability, T/C [13]: 109%
viability, T/C [14]: 117%
viability, T/C [15]: 110%
viability, T/C [16]: 96%
viability, T/C [17]: 104%
viability, T/C [18]: 75.9%
viability, T/C [19]: 119%
viability, T/C [20]: 109%
viability, T/C [21]: 105%
viability, T/C [22]: 106%
viability, T/C [23]: 103%
viability, T/C [24]: 75.2%
viability, T/C [25]: 110%
viability, T/C [26]: 99.3%
viability, T/C [27]: 85.4%
viability, T/C [28]: 98.6%
viability, T/C [29]: 101%
viability, T/C [30]: 65.3%
viability, T/C [31]: 90.2%
viability, T/C [32]: 99.8%
viability, T/C [33]: 99.2%
viability, T/C [34]: 100%
viability, T/C [35]: 88.2%
viability, T/C [36]: 65.6%
